# Experimental data reported in patent US8916702B2 (priority 2012, dated 2014).
# Tested on: HCV pseudoparticles (genotype 1a HCV E1 and E2 envelope, H77C isolate)
# Experiment: microbe, parasite or virus in culture
# Type: cell-based
# Settings: HCV pseudoparticles (genotype 1a, H77C) in Huh7 cells; average of duplicate; luciferase 2 days after infection
row,SMILES,EC50 [nM]
1,COC(=O)[C@H](CCNC(=O)C(=O)Nc1ccc(C)cc1)NC(=O)c1ccc(Nc2nc(NC3(c4ccc(Cl)cc4)CC3)nc(OCC(F)(F)F)n2)cc1 [Compound 3217],0.087

# Same assay, conditions: Hepatitis C virus, Huh-7, 48 h, HCV pseudoparticles (genotype 1a, H77C) in Huh7 cells; average of duplicate; luciferase 2 days after infection
row,SMILES,EC50 [nM]
1,COC(=O)[C@H](CNC(=O)C(=O)Nc1ccc(-n2cnnn2)cc1)NC(=O)c1ccc(Nc2nc(NC3(c4ccc(Cl)cc4)CC3)nc(OCC(F)(F)F)n2)cc1 [Compound 3191],0.82
2,COC(=O)[C@H](CNC(=O)C(=O)Nc1ccc(-c2cc[nH]n2)cc1)NC(=O)c1ccc(Nc2nc(NC3(c4ccc(Cl)cc4)CC3)nc(OCC(F)(F)F)n2)cc1 [Compound 3193],1.03
3,COC(=O)[C@H](CNC(=O)C(=O)Nc1ccc(OCCc2ccccn2)cc1)NC(=O)c1ccc(Nc2nc(NC3(c4ccc(Cl)cc4)CC3)nc(OCC(F)(F)F)n2)cc1 [Compound 3198],1.02
4,COC(=O)[C@H](CNC(=O)C(=O)Nc1ccc(-n2ccnc2C)cc1)NC(=O)c1ccc(Nc2nc(NC3(c4ccc(Cl)cc4)CC3)nc(OCC(F)(F)F)n2)cc1 [Compound 3203],5.47
5,CCOc1ccc(NC(=O)C(=O)NC[C@H](NC(=O)c2ccc(Nc3nc(NC4(c5ccc(Cl)cc5)CC4)nc(OCC(F)(F)F)n3)cc2)C(=O)OC)cc1 [Compound 3210],0.75
6,O=C(NCC[C@H](NC(=O)c1ccc(Nc2nc(NC3(c4ccc(Cl)cc4)CC3)nc(OCC(F)(F)F)n2)cc1)C(=O)O)C(=O)Nc1ccc(-n2cnc(Cl)c2Cl)cc1 [Compound 3225],17
7,Cc1cc(C)nc(N(C)c2ccc(NC(=O)C(=O)NCC[C@H](NC(=O)c3ccc(Nc4nc(NC5(c6ccc(Cl)cc6)CC5)nc(OCC(F)(F)F)n4)cc3)C(=O)O)cc2)n1 [Compound 3234],0.24
8,CC(C)(CNC(=O)C(=O)Nn1cccc1)CNC(=O)c1ccc(Nc2nc(NC3(c4ccc(Cl)cc4)CC3)nc(OCC(F)(F)F)n2)cc1 [Compound 3242],0.03

# Same assay, conditions: Hepatitis C virus, Huh-7, read-out: Activity (EC50 class), HCV pseudoparticles (genotype 1a, H77C) in Huh7 cells; EC50 expressed as class A/B
row,SMILES,EC50 [nM]
1,COC(=O)[C@H](CNC(=O)C(=O)Nc1ccc(-c2ccccc2C)cc1)NC(=O)c1ccc(Nc2nc(NC3(c4ccc(Cl)cc4)CC3)nc(OCC(F)(F)F)n2)cc1 [Compound 3187],0.01 to 10
2,COC(=O)[C@H](CNC(=O)C(=O)Nc1ccc(-c2ccc(C)cc2)cc1)NC(=O)c1ccc(Nc2nc(NC3(c4ccc(Cl)cc4)CC3)nc(OCC(F)(F)F)n2)cc1 [Compound 3188],0.01 to 10
3,COC(=O)[C@H](CNC(=O)C(=O)Nc1ccc(-c2csc(C)n2)cc1)NC(=O)c1ccc(Nc2nc(NC3(c4ccc(Cl)cc4)CC3)nc(OCC(F)(F)F)n2)cc1 [Compound 3190],0.01 to 10
4,COC(=O)[C@H](CNC(=O)C(=O)Nc1ccc(-n2cnnn2)cc1)NC(=O)c1ccc(Nc2nc(NC3(c4ccc(Cl)cc4)CC3)nc(OCC(F)(F)F)n2)cc1 [Compound 3191],0.01 to 10
5,CCOCCOc1ccc(NC(=O)C(=O)NC[C@H](NC(=O)c2ccc(Nc3nc(NC4(c5ccc(Cl)cc5)CC4)nc(OCC(F)(F)F)n3)cc2)C(=O)OC)cc1 [Compound 3192],0.01 to 10
6,COC(=O)[C@H](CNC(=O)C(=O)Nc1ccc(-c2cc[nH]n2)cc1)NC(=O)c1ccc(Nc2nc(NC3(c4ccc(Cl)cc4)CC3)nc(OCC(F)(F)F)n2)cc1 [Compound 3193],0.01 to 10
7,COC(=O)[C@H](CNC(=O)C(=O)Nc1ccc(CN2CCS(=O)(=O)CC2)cc1)NC(=O)c1ccc(Nc2nc(NC3(c4ccc(Cl)cc4)CC3)nc(OCC(F)(F)F)n2)cc1 [Compound 3194],0.01 to 10
8,COC(=O)[C@H](CNC(=O)C(=O)Nc1ccc(Cn2cccn2)cc1)NC(=O)c1ccc(Nc2nc(NC3(c4ccc(Cl)cc4)CC3)nc(OCC(F)(F)F)n2)cc1 [Compound 3195],0.01 to 10
9,COC(=O)[C@H](CNC(=O)C(=O)Nc1ccc(CN2CCCCC2)cc1)NC(=O)c1ccc(Nc2nc(NC3(c4ccc(Cl)cc4)CC3)nc(OCC(F)(F)F)n2)cc1 [Compound 3196],0.01 to 10
10,COC(=O)[C@H](CNC(=O)C(=O)Nc1ccc(CNC(N)=O)cc1)NC(=O)c1ccc(Nc2nc(NC3(c4ccc(Cl)cc4)CC3)nc(OCC(F)(F)F)n2)cc1 [Compound 3197],0.01 to 10
11,COC(=O)[C@H](CNC(=O)C(=O)Nc1ccc(OCCc2ccccn2)cc1)NC(=O)c1ccc(Nc2nc(NC3(c4ccc(Cl)cc4)CC3)nc(OCC(F)(F)F)n2)cc1 [Compound 3198],0.01 to 10
12,COC(=O)[C@H](CNC(=O)C(=O)Nc1ccc(-c2ccno2)cc1)NC(=O)c1ccc(Nc2nc(NC3(c4ccc(Cl)cc4)CC3)nc(OCC(F)(F)F)n2)cc1 [Compound 3199],0.01 to 10
13,COC(=O)[C@H](CNC(=O)C(=O)Nc1ccc(-c2nncn2C)cc1)NC(=O)c1ccc(Nc2nc(NC3(c4ccc(Cl)cc4)CC3)nc(OCC(F)(F)F)n2)cc1 [Compound 3200],0.01 to 10
14,COC(=O)[C@H](CNC(=O)C(=O)Nc1ccc(-c2csc(N3CCOCC3)n2)cc1)NC(=O)c1ccc(Nc2nc(NC3(c4ccc(Cl)cc4)CC3)nc(OCC(F)(F)F)n2)cc1 [Compound 3201],0.01 to 10
15,COC(=O)[C@H](CNC(=O)C(=O)Nc1ccc(Cn2ccnc2)cc1)NC(=O)c1ccc(Nc2nc(NC3(c4ccc(Cl)cc4)CC3)nc(OCC(F)(F)F)n2)cc1 [Compound 3202],0.01 to 10
16,COC(=O)[C@H](CNC(=O)C(=O)Nc1ccc(-n2ccnc2C)cc1)NC(=O)c1ccc(Nc2nc(NC3(c4ccc(Cl)cc4)CC3)nc(OCC(F)(F)F)n2)cc1 [Compound 3203],0.01 to 10
17,COC(=O)[C@H](CNC(=O)C(=O)Nc1ccc(Cn2ccnc2C)cc1)NC(=O)c1ccc(Nc2nc(NC3(c4ccc(Cl)cc4)CC3)nc(OCC(F)(F)F)n2)cc1 [Compound 3204],0.01 to 10
18,COCc1ccc(NC(=O)C(=O)NC[C@H](NC(=O)c2ccc(Nc3nc(NC4(c5ccc(Cl)cc5)CC4)nc(OCC(F)(F)F)n3)cc2)C(=O)OC)cc1 [Compound 3205],0.01 to 10
19,COC(=O)[C@H](CNC(=O)C(=O)Nc1ccc(Oc2ccncc2)cc1)NC(=O)c1ccc(Nc2nc(NC3(c4ccc(Cl)cc4)CC3)nc(OCC(F)(F)F)n2)cc1 [Compound 3206],0.01 to 10
20,COC(=O)[C@H](CNC(=O)C(=O)Nc1ccc(Oc2cccnc2)cc1)NC(=O)c1ccc(Nc2nc(NC3(c4ccc(Cl)cc4)CC3)nc(OCC(F)(F)F)n2)cc1 [Compound 3207],0.01 to 10
21,COC(=O)[C@H](CNC(=O)C(=O)Nc1ccc(OC2CCOCC2)cc1)NC(=O)c1ccc(Nc2nc(NC3(c4ccc(Cl)cc4)CC3)nc(OCC(F)(F)F)n2)cc1 [Compound 3208],0.01 to 10
22,COC(=O)[C@H](CNC(=O)C(=O)Nc1ccc(-c2ncco2)cc1)NC(=O)c1ccc(Nc2nc(NC3(c4ccc(Cl)cc4)CC3)nc(OCC(F)(F)F)n2)cc1 [Compound 3209],0.01 to 10
23,CCOc1ccc(NC(=O)C(=O)NC[C@H](NC(=O)c2ccc(Nc3nc(NC4(c5ccc(Cl)cc5)CC4)nc(OCC(F)(F)F)n3)cc2)C(=O)OC)cc1 [Compound 3210],0.01 to 10

row,SMILES,EC50 [nM]
1,COC(=O)[C@H](CNC(=O)C(=O)Nc1ccc(C(C)(C)C)cc1)NC(=O)c1ccc(Nc2nc(NC3(c4ccc(Cl)cc4)CC3)nc(OCC(F)(F)F)n2)cc1 [Compound 3211],0.01 to 10
2,COC(=O)[C@H](CNC(=O)C(=O)Nc1ccc(C(C)C)cc1)NC(=O)c1ccc(Nc2nc(NC3(c4ccc(Cl)cc4)CC3)nc(OCC(F)(F)F)n2)cc1 [Compound 3212],0.01 to 10
3,CCc1ccc(NC(=O)C(=O)NC[C@H](NC(=O)c2ccc(Nc3nc(NC4(c5ccc(Cl)cc5)CC4)nc(OCC(F)(F)F)n3)cc2)C(=O)OC)cc1 [Compound 3213],0.01 to 10
4,COC(=O)[C@H](CNC(=O)C(=O)Nc1ccc(OC(F)(F)F)cc1)NC(=O)c1ccc(Nc2nc(NC3(c4ccc(Cl)cc4)CC3)nc(OCC(F)(F)F)n2)cc1 [Compound 3214],0.01 to 10
5,COC(=O)[C@H](CNC(=O)C(=O)Nc1ccc(OC(F)F)cc1)NC(=O)c1ccc(Nc2nc(NC3(c4ccc(Cl)cc4)CC3)nc(OCC(F)(F)F)n2)cc1 [Compound 3215],0.01 to 10
6,COC(=O)[C@H](CCNC(=O)C(=O)Nc1ccc(CCO)cc1)NC(=O)c1ccc(Nc2nc(NC3(c4ccc(Cl)cc4)CC3)nc(OCC(F)(F)F)n2)cc1 [Compound 3218],0.01 to 10
7,O=C(NCC[C@H](NC(=O)c1ccc(Nc2nc(NC3(c4ccc(Cl)cc4)CC3)nc(OCC(F)(F)F)n2)cc1)C(=O)O)C(=O)Nc1ccc(Cc2ccncc2)cc1 [Compound 3224],0.01 to 10
8,O=C(NCC[C@H](NC(=O)c1ccc(Nc2nc(NC3(c4ccc(Cl)cc4)CC3)nc(OCC(F)(F)F)n2)cc1)C(=O)O)C(=O)Nc1ccc(-n2cnc(Cl)c2Cl)cc1 [Compound 3225],10 to 1000
9,O=C(NCC[C@H](NC(=O)c1ccc(Nc2nc(NC3(c4ccc(Cl)cc4)CC3)nc(OCC(F)(F)F)n2)cc1)C(=O)O)C(=O)Nc1ccc(OCC(F)(F)F)cc1 [Compound 3226],0.01 to 10
10,O=C(NCC[C@H](NC(=O)c1ccc(Nc2nc(NC3(c4ccc(Cl)cc4)CC3)nc(OCC(F)(F)F)n2)cc1)C(=O)O)C(=O)Nc1ccc(N2CCCC2=O)cc1 [Compound 3227],0.01 to 10
11,O=C(NCC[C@H](NC(=O)c1ccc(Nc2nc(NC3(c4ccc(Cl)cc4)CC3)nc(OCC(F)(F)F)n2)cc1)C(=O)O)C(=O)Nc1ccc(-n2ccc(C(F)(F)F)n2)cc1 [Compound 3228],0.01 to 10
12,O=C(NCC[C@H](NC(=O)c1ccc(Nc2nc(NC3(c4ccc(Cl)cc4)CC3)nc(OCC(F)(F)F)n2)cc1)C(=O)O)C(=O)Nc1ccc(C(O)N2CCOCC2)cc1 (some centres unmarked) [Compound 3229],10 to 1000
13,O=C(NCC[C@H](NC(=O)c1ccc(Nc2nc(NC3(c4ccc(Cl)cc4)CC3)nc(OCC(F)(F)F)n2)cc1)C(=O)O)C(=O)Nc1ccc(-n2cncn2)cc1 [Compound 3231],0.01 to 10
14,O=C(NCC[C@H](NC(=O)c1ccc(Nc2nc(NC3(c4ccc(Cl)cc4)CC3)nc(OCC(F)(F)F)n2)cc1)C(=O)O)C(=O)Nc1ccc(N2CCN(Cc3ccccc3)CC2)cc1 [Compound 3232],0.01 to 10
15,Cc1cc(C)nc(N(C)c2ccc(NC(=O)C(=O)NCC[C@H](NC(=O)c3ccc(Nc4nc(NC5(c6ccc(Cl)cc6)CC5)nc(OCC(F)(F)F)n4)cc3)C(=O)O)cc2)n1 [Compound 3234],0.01 to 10
16,Cc1nnnn1-c1ccc(NC(=O)C(=O)NCC[C@H](NC(=O)c2ccc(Nc3nc(NC4(c5ccc(Cl)cc5)CC4)nc(OCC(F)(F)F)n3)cc2)C(=O)O)cc1 [Compound 3236],0.01 to 10
17,O=C(NCC[C@H](NC(=O)c1ccc(Nc2nc(NC3(c4ccc(Cl)cc4)CC3)nc(OCC(F)(F)F)n2)cc1)C(=O)O)C(=O)Nc1ccc(-n2cccn2)cc1 [Compound 3237],0.01 to 10
18,Cc1cc(C)n(-c2ccc(NC(=O)C(=O)NCC[C@H](NC(=O)c3ccc(Nc4nc(NC5(c6ccc(Cl)cc6)CC5)nc(OCC(F)(F)F)n4)cc3)C(=O)O)cc2)n1 [Compound 3238],0.01 to 10
19,CC(C)(CNC(=O)C(=O)Nc1ncc(F)s1)CNC(=O)c1ccc(Nc2nc(NC3(c4ccc(Cl)cc4)CC3)nc(OCC(F)(F)F)n2)cc1 [Compound 3239],0.01 to 10
20,Cc1ccc(-c2ccccc2NC(=O)C(=O)NCC(C)(C)CNC(=O)c2ccc(Nc3nc(NC4(c5ccc(Cl)cc5)CC4)nc(OCC(F)(F)F)n3)cc2)o1 [Compound 3240],0.01 to 10
21,CC(C)(CNC(=O)C(=O)Nc1ccncc1)CNC(=O)c1ccc(Nc2nc(NC3(c4ccc(Cl)cc4)CC3)nc(OCC(F)(F)F)n2)cc1 [Compound 3241],0.01 to 10
22,CC(C)(CNC(=O)C(=O)Nn1cccc1)CNC(=O)c1ccc(Nc2nc(NC3(c4ccc(Cl)cc4)CC3)nc(OCC(F)(F)F)n2)cc1 [Compound 3242],0.01 to 10
23,CC(C)(CNC(=O)C(N)=O)CNC(=O)c1ccc(Nc2nc(NC3(c4ccccc4F)CC3)nc(OCC(F)(F)F)n2)cc1 [Compound 3243],0.01 to 10

# Same assay, conditions: read-out: Activity (EC50 class); HCV pseudoparticles (genotype 1a, H77C) in Huh7 cells; EC50 expressed as class A/B
row,SMILES,EC50 [nM]
1,COC(=O)[C@H](CCNC(=O)C(=O)Nc1ccc(C)cc1)NC(=O)c1ccc(Nc2nc(NC3(c4ccc(Cl)cc4)CC3)nc(OCC(F)(F)F)n2)cc1 [Compound 3217],0.01 to 10
